Paper PMC9820279 (International Journal of Molecular Sciences, 2022)
Read-outs that look alike come from different tables or passages of the source.

Tested on: HBMEC monolayer
[1] = matrix ASFE extract 24 µg/mL, 2 h incubation, n.d = not detected in lower compartment
[2] = matrix ASFE extract 24 µg/mL, 4 h incubation, n.d = not detected in lower compartment

C=CC(C)(O)CCC=C(C)CCC=C(C)C (mixture of isomers) [Nerolidol]
Te % (SEM) 2 h (human): 30.1 (2.5) %
Te % (SEM) 4 h (human): 59.8 (2.4) %

C[C@H]1[C@H](C)CC[C@]2(CO)CC[C@]3(C)C(=CC[C@@H]4[C@@]5(C)CC[C@H](O)C(C)(C)[C@@H]5CC[C@]43C)[C@H]12 (single isomer, unassigned) [Uvaol Isomer I, Uvaol]
Te % (SEM) 2 h (human): 3.3 (0.1) %
Te % (SEM) 4 h (human): 38.8 (3.2) %

C[C@H]1[C@H](C)CC[C@]2(CO)CC[C@]3(C)C(=CC[C@@H]4[C@@]5(C)CC[C@H](O)C(C)(C)[C@@H]5CC[C@]43C)[C@H]12 (single isomer, unassigned) [Uvaol Isomer II, Uvaol]
Te % (SEM) 2 h (human): 17.7 (1.0) %
Te % (SEM) 4 h (human): 38.3 (0.7) %

CC1=CCC2C(C1)C2(C)C (centres unmarked) [3-Carene]
Te % (SEM) 4 h (human, 4 h, 15 µg/mL): 20.3 (0.9) %

C/C=C/C(=O)C1=C(C)CC(O)CC1(C)C (stereo not drawn) [3-hydroxy-β-damascone]
Te % (SEM) 2 h: 84.5 (3.2) %

C[C@@H]1CC[C@@H]2[C@@H]1[C@H]1[C@@H](CC[C@@]2(C)O)C1(C)C [(-)-Globulol]
Te % (SEM) 2 h: 44.1 (3.6) %

CC1=CCCC2(C)CCC3C(C)(C)CC132 (stereo not drawn) [(−)-α-Panasinsen]
Te % (SEM) 2 h: 19.8 (0.2) %

CC1(C)C2CCC1(C)C(O)C2 (centres unmarked) [Borneol]
Te % (SEM) 2 h (human, 2 h, 40 µg/mL): 8.5 (0.3) %
Te % (SEM) 4 h (human, 4 h, 40 µg/mL): 35.2 (0.1) %

O=C(/C=C/c1ccc(O)c(O)c1)c1ccc(O)cc1O [Butein]
Te % (SEM) 2 h [1]: 27.5 (2.0) %
Te % (SEM) 4 h [2]: 36.3 (2.6) %

O=C(O)/C=C/c1ccc(O)c(O)c1 [Caffeic acid]
Te % (SEM) 2 h (human, 2 h, 24 µg/mL): 55.4 (3.7) %
Te % (SEM) 2 h (human, 2 h, 30 µg/mL): 34.8 (1.2) %
Te % (SEM) 4 h (human, 4 h, 24 µg/mL): 68.3(0.3) %
Te % (SEM) 4 h (human, 4 h, 30 µg/mL): 50.1 (3.4) %

O=C(/C=C/c1ccc(O)c(O)c1)OC1[C@H](O)CC(O)(C(=O)O)C[C@H]1O (some centres unmarked) [Caffeoylquinic acid]
Te % (SEM) 2 h: 15.7 (0.4) %
Te % (SEM) 4 h: 74.8 (2.9) %

CC(C)[C@H](C)CC[C@@H](C)[C@H]1CC[C@H]2[C@@H]3CC=C4C[C@@H](O)CC[C@]4(C)[C@H]3CC[C@]12C [Campesterol]
Te % (SEM) 2 h (human): 68.7 (2.2) %

C=C1CC[C@H]2O[C@]2(C)CC[C@@H]2[C@@H]1CC2(C)C [Caryophyllene oxide]
Te % (SEM) 2 h: 67.7 (0.9) %

C[C@H]1[C@H](C)CC[C@]2(C(=O)O)CC[C@]3(C)C(=CC[C@@H]4[C@@]5(C)C[C@@H](O)[C@H](O)C(C)(C)[C@@H]5CC[C@]43C)[C@H]12 [Corosolic acid]
Te % (SEM) 2 h [1]: 33.4 (1.9) %
Te % (SEM) 4 h [2]: 39.6 (1.9) %

O=C(/C=C/c1ccc(O)cc1)O[C@@H](C(=O)O)[C@@H](O)C(=O)O [Coutaric acid]
Detection / transport to lower compartment (brain side) of HBMEC-BBB model (ASFE extract): not detected in the lower compartment

CC1(C)CCCC2(C)OC(=O)C=C12 (centres unmarked) [Dihydroactinidiolide]
Te % (SEM) 2 h (human): 42.2 (3.5) %
Te % (SEM) 4 h (human): 51.8 (3.0) %

C=C[C@]1(C)CC[C@@H](C(C)(C)O)C[C@H]1C(=C)C [Elemol]
Te % (SEM) 2 h: 24.6 (0.5) %
Te % (SEM) 4 h: 25.4 (1.6) %

CCOC(=O)/C=C/c1ccc(O)c(O)c1 [Ethyl caffeate]
Te % (SEM) 2 h: 33.4 (2.4) %
Te % (SEM) 4 h: 35.7 (0.3) %

O=C(O)c1cc(O)c(O)c(O)c1 [Gallic acid]
Te % (SEM) 2 h (human, 2 h, 30 µg/mL): 33.0 (1.9)/39.9 (1.4) %
Te % (SEM) 4 h (human, 4 h, 30 µg/mL): 62.9 (0.3)/67.9(1.3) %
Te % (SEM) 2 h [1]: 33.0 (1.9)/39.9 (1.4) %
Te % (SEM) 4 h [2]: 62.9 (0.3)/67.9(1.3) %

CC(CC(=O)CC(C)C1CC(O)C2(C)C3=C(C(=O)CC12C)C1(C)CCC(O)C(C)(CO)C1CC3)C(=O)O (centres unmarked) [Ganolucidic acid C]
Te % (SEM) 2 h [1]: 11.7 (0.7) %
Te % (SEM) 4 h [2]: 15.6 (0.3) %

CC(C)=CCC/C(C)=C/CC/C(C)=C/CC/C(C)=C/CO [Geranylgeraniol]
Te % (SEM) 2 h: 30.2 (1.1) %
Te % (SEM) 4 h: 56.6 (3.1) %

C=C1/C=C/[C@H](C(C)C)CC/C(C)=C/CC1 [Germacrene D]
Te % (SEM) 2 h: 3.2 (0.2) %
Te % (SEM) 4 h: 6.6 (0.4) %

COc1ccc([C@@H]2CC(=O)c3c(O)cc(O)cc3O2)cc1O [Hesperetin]
Te % (SEM) 2 h (human, 2 h, 24 µg/mL): 65.5 (4.8) %
Te % (SEM) 4 h (human, 4 h, 24 µg/mL): 67.2 (3.6) %

CC1(C)C[C@H](O)C[C@]2(C)OC(=O)C=C12 [Isololiolide]
Te % (SEM) 2 h: 33.0 (2.6) %
Te % (SEM) 4 h: 61.4 (4.3) %

C=CC(C)(O)CCCC(C)CCCC(C)CCCC(C)C (centres unmarked) [Isophytol]
Te % (SEM) 2 h: 15.6 (1.0) %
Te % (SEM) 4 h: 58.0 (1.7) %

O=c1c(O)c(-c2ccc(O)cc2)oc2cc(O)cc(O)c12 [Kaempferol]
Te % (SEM) 2 h (human, 2 h, 24 µg/mL): 31.5 (1.1) %
Te % (SEM) 4 h (human, 4 h, 24 µg/mL): 36.5 (2.2) %

CC1=CC[C@@H](C(C)(C)O)CC1 [L-α-Terpineol]
Te % (SEM) 2 h: 17.6 (1.3) %
Te % (SEM) 4 h: 59.3 (0.4) %

C=C(C)C1CCC2(C)OC2C1 (centres unmarked) [Limonene Epoxide]
Te % (SEM) 2 h: 19.5 (1.2) %
Te % (SEM) 4 h: 42.4 (3.2) %

C=C(C)[C@H]1CC=C(C)CC1 [Limonene]
Te % (SEM) 2 h: 33.6 (2.3) %
Te % (SEM) 4 h: 59.3 (2.9) %

CC1(C)C[C@@H]2C3=CC[C@@H]4[C@@]5(C)CC[C@H](O)[C@@](C)(C=O)C5CC[C@@]4(C)[C@]3(C)CC[C@@]2(C(=O)O)C[C@@H]1O (some centres unmarked) [Lucyin A]
Te % (SEM) 2 h [1]: 7.6 (0.5) %
Te % (SEM) 4 h [2]: 25.3 (0.7) %

C=C(C)[C@@H]1CCC2=CC(=O)C[C@@H](C)[C@]2(C)C1 [Nootkatone]
Te % (SEM) 2 h (human): 29.9 (0.9) %
Te % (SEM) 4 h (human): 43.0 (3.4) %

CC(=O)OC(C)(C)[C@@H]1CC[C@@]2(C)CO[C@]3(C)C=CO[C@]23C1 [Phytuberin]
Te % (SEM) 2 h: 33.4 (1.5) %
Te % (SEM) 4 h: 79.6 (2.2) %

O=C(O)c1ccc(O)c(O)c1 [Protocatechuic acid]
Te % (SEM) 2 h [1]: 45.1 (3.8) %
Te % (SEM) 4 h [2]: 71.7 (3.2) %

O=Cc1ccc(O)c(O)c1 [Protocatechuic aldehyde]
Te % (SEM) 2 h [1]: 20.3 (1.5) %
Te % (SEM) 4 h [2]: 78.2 (5.7) %

O=C(O)[C@]1(O)C[C@@H](O)[C@@H](O)[C@H](O)C1 [Quinic acid]
Te % (SEM) 2 h (human, 2 h, 30 µg/mL): 20.1 (1.6) %
Te % (SEM) 4 h (human, 4 h, 30 µg/mL): 52.5 (1.4) %

O=C(/C=C/c1ccc(O)c(O)c1)O[C@H](Cc1ccc(O)c(O)c1)C(=O)O [Rosmarinic acid]
Te % (SEM) 2 h (human): 41.0 (2.3) %
Te % (SEM) 4 h (human): 90.3 (4.2) %

C[C@@H]1O[C@@H](OC[C@H]2O[C@@H](Oc3c(-c4ccc(O)c(O)c4)oc4cc(O)cc(O)c4c3=O)[C@H](O)[C@@H](O)[C@@H]2O)[C@H](O)[C@H](O)[C@H]1O [Rutin]
Detection / transport to brain side of HBMEC-BBB model: poor transport trough the BBB

CC[C@H](/C=C/[C@@H](C)[C@H]1CC[C@H]2[C@@H]3CC=C4C[C@@H](O)CC[C@]4(C)[C@H]3CC[C@]12C)C(C)C [Stigmasterol]
Te % (SEM) 2 h (human): 40.4 (2.2) %
Te % (SEM) 4 h (human): 64.5 (0.4) %

COc1cc(C=O)cc(OC)c1O [Syringaldehyde]
Te % (SEM) 2 h (human): 22.7 (1.5)/33.4 (2.2) %
Te % (SEM) 4 h (human): 45.7 (3.2)/42.0 (1.4) %
Te % (SEM) 2 h [1]: 22.7 (1.5)/33.4 (2.2) %
Te % (SEM) 4 h [2]: 45.7 (3.2)/42.0 (1.4) %

Cc1ccc(C(C)C)c(O)c1 [Thymol]
Te % (SEM) 2 h (human, 2 h, 40 µg/mL): 34.1 (0.1) %
Te % (SEM) 4 h (human, 4 h, 40 µg/mL): 47.0 (1.7) %

CCC(O)C1CC(C)C2(CC(=O)C3(C)C4=C(CCC32C)C2(C)CCC(=O)C(C)(CO)C2CC4)O1 [Triterpene, (23S,24S)-17,23-Epoxy-24,29-dihydroxy-27-norlanost-8-ene-3,15-dione]
Te % (SEM) 2 h [1]: 30.4 (1.7) %
Te % (SEM) 4 h [2]: 82.9 (5.3) %

C=C(C)[C@@H]1CCC2=CCC[C@@H](C)[C@]2(C)C1 [Valencene]
Te % (SEM) 2 h: 51.9 (4.2) %

COc1cc(C(=O)O)ccc1O [Vanillic acid]
Te % (SEM) 2 h [1]: 38.9 (1.2) %
Te % (SEM) 4 h [2]: 42.2 (0.7) %

CC(C)C1CCC2(C)C3CC=C(C=O)C2C13 (centres unmarked) [Ylangenal]
Te % (SEM) 2 h: 32.0 (2.7) %
Te % (SEM) 4 h: 36.9 (0.4) %

O=C(O)C=Cc1ccc(O)cc1 [p-Coumaric acid]
Te % (SEM) 2 h (human): 9.1 (0.6) %
Te % (SEM) 4 h (human): 37.8 (2.5) %

O=C(O)c1ccc(O)cc1 [p-Salycilic acid]
Te % (SEM) 2 h: 25.5 (1.8) %
Te % (SEM) 4 h: 43.4 (1.3) %

Cc1c(C)c2c(c(C)c1O)CC[C@@](C)(CCC[C@H](C)CCC[C@H](C)CCCC(C)C)O2 [α-Tocopherol]
Te % (SEM) 2 h (human, 2 h, 15 µg/mL): 18.3 (0.8) %
Te % (SEM) 2 h (human, 2 h, 40 µg/mL): 19.8 (0.2) %
Te % (SEM) 4 h (human, 4 h, 15 µg/mL): 29.1 (1.5) %
Te % (SEM) 4 h (human, 4 h, 40 µg/mL): 39.7 (3.0) %

C=C1CCC[C@]2(C)CC[C@H]3C(C)(C)C[C@]132 [β-Panasinsene]
Te % (SEM) 2 h: 33.4 (1.5) %
Te % (SEM) 4 h: 34.8 (1.0) %

C=CC(=C)CC/C=C(\C)CC/C=C(\C)C=O [β-Sinensal]
Te % (SEM) 2 h: 31.6 (1.2) %
Te % (SEM) 4 h: 38.2 (2.4) %

Cc1cc(O)c(C)c2c1O[C@](C)(CCC[C@H](C)CCC[C@H](C)CCCC(C)C)CC2 [β-Tocopherol]
Te % (SEM) 4 h: 15.2 (0.8) %
